Experimental data from ChEMBL document CHEMBL6078668, “Synthesis and biological evaluation of lappaconitine analogues as potential anti-neuroinflammatory agents by side chain modification and scaffold hopping strategy” (Bioorg Med Chem, 2025).

Key:
[1] = Cytotoxicity against C57BL/6 mouse BV-2 cells assessed as survival rate at 30 uM incubated for 24 hrs by MTT assay relative to control; format: toxicity, cell-based; settings: read-out: Survival
BV-2 [2] = experiment: Anti-neuroinflammatory activity against LPS-stimulated C57BL/6 mouse BV-2 cells assessed as inhibition of NO release at 30 uM preincubated with compound for 4 hrs followed by LPS addition and measured after 24 hrs by Griess reagent based assay relative to control; format: functional; settings: C57BL/6, BV-2, time 28 hrs
BV-2 [3] = experiment: Anti-neuroinflammatory activity against LPS-stimulated C57BL/6 mouse BV-2 cells assessed as inhibition of NO release preincubated with compound for 4 hrs followed by LPS addition and measured after 24 hrs by Griess reagent based assay; format: functional, cell-based; settings: C57BL/6, BV-2
[4] = Cytotoxicity against C57BL/6 mouse BV-2 cells assessed as survival rate at 10 uM incubated for 24 hrs by MTT assay relative to control; format: toxicity, cell-based; settings: read-out: Survival
BV-2 [5] = experiment: Anti-neuroinflammatory activity against LPS-stimulated C57BL/6 mouse BV-2 cells assessed as inhibition of NO release at 10 uM preincubated with compound for 4 hrs followed by LPS addition and measured after 24 hrs by Griess reagent based assay relative to control; format: functional; settings: C57BL/6, BV-2, time 28 hrs

Row | SMILES | viability at 24 h, 30 µM [1] [%] | inhibition at 30 µM (BV-2 [2]) [%] | IC50 (BV-2 [3]) [µM] | viability at 24 h, 10 µM [4] [%] | inhibition at 10 µM (BV-2 [5]) [%]
1 | CCCOc1ccccc1C(=O)Nc1ccccc1C(=O)O[C@@]12CC[C@H](OC)[C@]34C([C@@H](C[C@H]13)[C@@]1(O)C[C@H](OC)[C@H]3C[C@@H]4[C@]1(O)[C@H]3OC)N(CC)C2 | 106 | 78.5 | 11.8 |  | 
2 | CCc1ccc(C(=O)Nc2ccccc2C(=O)O[C@H]2[C@@H]3C[C@H]4[C@@]56C7[C@@H](C[C@@H]5[C@@](COC)(CC[C@@H]6OC)CN7CC)[C@@](O)(C[C@@H]3OC)[C@@]24O)cc1 |  |  |  | 1.2 | 
3 | CCN1C[C@]2(OC(=O)c3ccccc3NC(=O)c3ccc(N(C)C)cc3)CC[C@H](OC)[C@]34C1[C@@H](C[C@H]23)[C@@]1(O)C[C@H](OC)[C@H]2C[C@@H]4[C@]1(O)[C@H]2OC | 101 | 62.4 | 23.6 |  | 
4 | CCN1C[C@]2(OC(=O)c3ccccc3NC(=O)c3ccc(Br)s3)CC[C@H](OC)[C@]34C1[C@@H](C[C@H]23)[C@@]1(O)C[C@H](OC)[C@H]2C[C@@H]4[C@]1(O)[C@H]2OC | 103 | 72.9 | 16.5 |  | 
5 | CCN1C[C@]2(COC)CC[C@H](OC)[C@]34C1[C@@H](C[C@H]23)[C@@]1(O)C[C@H](OC)[C@H]2C[C@@H]4[C@]1(O)[C@H]2OC(=O)c1ccccc1NC(=O)c1ccc(Cl)s1 |  |  |  | 97.8 | 22.2
6 | CCN1C[C@]2(OC(=O)c3ccccc3NC(=O)S(=O)(=O)c3c(Cl)sc4ccccc34)CC[C@H](OC)[C@]34C1[C@@H](C[C@H]23)[C@@]1(O)C[C@H](OC)[C@H]2C[C@@H]4[C@]1(O)[C@H]2OC |  |  |  | 98.5 | 26.4
7 | CCN1C[C@]2(OC(=O)c3ccccc3NC(=O)S(=O)(=O)c3ccc(Cl)s3)CC[C@H](OC)[C@]34C1[C@@H](C[C@H]23)[C@@]1(O)C[C@H](OC)[C@H]2C[C@@H]4[C@]1(O)[C@H]2OC | 100 | 69 | 17.9 |  | 
8 | CCN1C[C@]2(OC(=O)c3ccccc3NC(=O)S(=O)(=O)c3ccc(Br)s3)CC[C@H](OC)[C@]34C1[C@@H](C[C@H]23)[C@@]1(O)C[C@H](OC)[C@H]2C[C@@H]4[C@]1(O)[C@H]2OC | 103 | 81.9 | 11.4 |  | 
9 | CCN1C[C@]2(OC(=O)c3ccccc3NC(=O)S(=O)(=O)c3c(C)c(C)c4c(c3C)CC(C)(C)O4)CC[C@H](OC)[C@]34C1[C@@H](C[C@H]23)[C@@]1(O)C[C@H](OC)[C@H]2C[C@@H]4[C@]1(O)[C@H]2OC |  |  |  | 95.8 | 17.5
10 | CCN1C[C@]2(OC(=O)c3ccccc3NC(=O)c3ccc(Cl)s3)CC[C@H](OC)[C@]34C1[C@@H](C[C@H]23)[C@@]1(O)C[C@H](OC)[C@H]2C[C@@H]4[C@]1(O)[C@H]2OC | 108 | 82.1 | 11.3 |  | 
11 | CCN1C[C@]2(OC(=O)c3ccccc3NC(=O)S(=O)(=O)c3ccccc3F)CC[C@H](OC)[C@]34C1[C@@H](C[C@H]23)[C@@]1(O)C[C@H](OC)[C@H]2C[C@@H]4[C@]1(O)[C@H]2OC | 106 | 68 | 18.9 |  | 
12 | CCN1C[C@]2(OC(=O)c3ccccc3NC(=O)S(=O)(=O)c3cc(F)cc(F)c3)CC[C@H](OC)[C@]34C1[C@@H](C[C@H]23)[C@@]1(O)C[C@H](OC)[C@H]2C[C@@H]4[C@]1(O)[C@H]2OC | 102 | 64.1 | 20.4 |  | 
13 | CCN1C[C@]2(OC(=O)c3ccccc3NC(=O)S(=O)(=O)c3cccnc3)CC[C@H](OC)[C@]34C1[C@@H](C[C@H]23)[C@@]1(O)C[C@H](OC)[C@H]2C[C@@H]4[C@]1(O)[C@H]2OC | 99.3 | 63.2 | 22.2 |  | 
14 | CCN1C[C@]2(OC(=O)c3ccccc3NC(=O)CC(C)(C)C)CC[C@H](OC)[C@]34C1[C@@H](C[C@H]23)[C@@]1(O)C[C@H](OC)[C@H]2C[C@@H]4[C@]1(O)[C@H]2OC | 106 | 74.8 | 16.1 |  | 
15 | CCc1ccc(C(=O)Nc2ccccc2C(=O)O[C@@]23CC[C@H](OC)[C@]45C([C@@H](C[C@H]24)[C@@]2(O)C[C@H](OC)[C@H]4C[C@@H]5[C@]2(O)[C@H]4OC)N(CC)C3)cc1 | 107 | 83.9 | 10.4 |  | 
16 | CCN1C[C@]2(OC(=O)c3ccccc3NC(=O)S(=O)(=O)c3ccc(F)cc3F)CC[C@H](OC)[C@]34C1[C@@H](C[C@H]23)[C@@]1(O)C[C@H](OC)[C@H]2C[C@@H]4[C@]1(O)[C@H]2OC | 103 | 47.5 |  |  | 
17 | CCN1C[C@]2(OC(=O)c3ccccc3NC(=O)S(=O)(=O)c3ccc4c(c3)CCC4)CC[C@H](OC)[C@]34C1[C@@H](C[C@H]23)[C@@]1(O)C[C@H](OC)[C@H]2C[C@@H]4[C@]1(O)[C@H]2OC | 94.4 | 18.1 |  |  | 

Row | SMILES | viability at 24 h, 30 µM [1] [%] | inhibition at 30 µM (BV-2 [2]) [%] | IC50 (BV-2 [3]) [µM] | viability at 24 h, 10 µM [4] [%] | inhibition at 10 µM (BV-2 [5]) [%]
18 | CCN1C[C@]2(OC(=O)c3ccccc3NC(=O)C(C)C)CC[C@H](OC)[C@]34C1[C@@H](C[C@H]23)[C@@]1(O)C[C@H](OC)[C@H]2C[C@@H]4[C@]1(O)[C@H]2OC | 105 | 8.9 |  |  | 
19 | CCN1C[C@]2(OC(=O)c3ccccc3NC(=O)S(=O)(=O)c3cc(F)c(F)cc3F)CC[C@H](OC)[C@]34C1[C@@H](C[C@H]23)[C@@]1(O)C[C@H](OC)[C@H]2C[C@@H]4[C@]1(O)[C@H]2OC | 108 | 10.5 |  |  | 
20 | CCN1C[C@]2(OC(=O)c3ccccc3NC(=O)c3cccc(C#N)c3)CC[C@H](OC)[C@]34C1[C@@H](C[C@H]23)[C@@]1(O)C[C@H](OC)[C@H]2C[C@@H]4[C@]1(O)[C@H]2OC | 101 | 12.8 |  |  | 
21 | CCN1C[C@]2(OC(=O)c3ccccc3NC(=O)c3ccccc3Cl)CC[C@H](OC)[C@]34C1[C@@H](C[C@H]23)[C@@]1(O)C[C@H](OC)[C@H]2C[C@@H]4[C@]1(O)[C@H]2OC | 104 | 12.8 |  |  | 
22 | CCN1C[C@]2(OC(=O)c3ccccc3NC(=O)c3cccc(Br)c3)CC[C@H](OC)[C@]34C1[C@@H](C[C@H]23)[C@@]1(O)C[C@H](OC)[C@H]2C[C@@H]4[C@]1(O)[C@H]2OC | 100 | 44.1 |  |  | 
23 | CCN1C[C@]2(OC(=O)c3ccccc3NC(=O)S(=O)(=O)c3cccc(Cl)c3)CC[C@H](OC)[C@]34C1[C@@H](C[C@H]23)[C@@]1(O)C[C@H](OC)[C@H]2C[C@@H]4[C@]1(O)[C@H]2OC | 95.4 | 13.9 |  |  | 
24 | CCN1C[C@]2(OC(=O)c3ccccc3NC(=O)S(=O)(=O)c3ccc4c(c3)OCC4)CC[C@H](OC)[C@]34C1[C@@H](C[C@H]23)[C@@]1(O)C[C@H](OC)[C@H]2C[C@@H]4[C@]1(O)[C@H]2OC | 96.3 | 9.9 |  |  | 
25 | CCN1C[C@]2(OC(=O)c3ccccc3NC(=O)S(=O)(=O)c3ccccc3)CC[C@H](OC)[C@]34C1[C@@H](C[C@H]23)[C@@]1(O)C[C@H](OC)[C@H]2C[C@@H]4[C@]1(O)[C@H]2OC | 97.2 | 31.8 |  |  | 
26 | CCc1ccc(C(=O)Nc2ccccc2C(=O)O)cc1 | 101 | 11.9 |  |  | 
27 | CCN1C[C@]2(OC(=O)c3ccccc3NC(=O)S(=O)(=O)/C=C/c3ccccc3)CC[C@H](OC)[C@]34C1[C@@H](C[C@H]23)[C@@]1(O)C[C@H](OC)[C@H]2C[C@@H]4[C@]1(O)[C@H]2OC | 108 | 29.4 |  |  | 
28 | CCN1C[C@]2(OC(=O)c3ccccc3NC(=O)C3CCOC3)CC[C@H](OC)[C@]34C1[C@@H](C[C@H]23)[C@@]1(O)C[C@H](OC)[C@H]2C[C@@H]4[C@]1(O)[C@H]2OC (some centres undefined) | 109 | 32.4 |  |  | 
29 | CCN1C[C@]2(OC(=O)c3ccccc3NC(=O)S(=O)(=O)c3ccc(Cl)nc3)CC[C@H](OC)[C@]34C1[C@@H](C[C@H]23)[C@@]1(O)C[C@H](OC)[C@H]2C[C@@H]4[C@]1(O)[C@H]2OC | 104 | 33.5 |  |  | 
30 | CCO/C=C/C(=O)Nc1ccccc1C(=O)O[C@@]12CC[C@H](OC)[C@]34C([C@@H](C[C@H]13)[C@@]1(O)C[C@H](OC)[C@H]3C[C@@H]4[C@]1(O)[C@H]3OC)N(CC)C2 | 110 | 28.7 |  |  | 
31 | CCN1C[C@]2(COC(=O)c3ccccc3NC(=O)c3ccc(Cl)s3)CC[C@H](OC)[C@]34C1[C@@H](C[C@H]23)[C@@]1(O)C[C@H](OC)[C@H]2C[C@@H]4[C@]1(O)[C@H]2OC |  |  |  | 105 | 13.5
32 | CCCCOC(=O)c1ccccc1NS(=O)(=O)c1ccc(Br)s1 | 104 | 34.6 |  |  | 
33 | CCCOc1ccc(C(=O)Nc2ccccc2C(=O)O[C@@]23CC[C@H](OC)[C@]45C([C@@H](C[C@H]24)[C@@]2(O)C[C@H](OC)[C@H]4C[C@@H]5[C@]2(O)[C@H]4OC)N(CC)C3)cc1 | 105 | 74.8 | 15.5 |  | 
34 | CCN1C[C@]2(OC(=O)c3ccccc3NC(=O)S(=O)(=O)CCCCl)CC[C@H](OC)[C@]34C1[C@@H](C[C@H]23)[C@@]1(O)C[C@H](OC)[C@H]2C[C@@H]4[C@]1(O)[C@H]2OC | 104 | 23.5 |  |  | 
